# Measured values from publication PMC12587161, “Chidamide (a Histone Deacetylase Inhibitor) Plus Abiraterone in Metastatic Castration‐Resistant Prostate Cancer (mCRPC): A Phase Ib Trial” (MedComm, 2025).
# Entries after “also recorded” stand apart in the source; their conditions may differ. Where two headings read alike, the source gives them in different places.
# What was measured:
# C4-2 cells = assay: Cell viability by CCK-8; type: cell-based; conditions: DHT 10 nM, chidamide 0.5 µM and/or enzalutamide 20 µM, 96 h
# Description: (§1) FIGURE 5 Chidamide inhibited AR pathway and CRPC progression and in vitro. (A) Effect of chidamide and enzalutamide on cell viability. C4‐2 cells were treated with DHT (10 nM), chidamide (0.5 µM), and/or enzalutamide (20 µM) for 96 h. Cell viability was measured by CCK‐8. […] DHT (10 nM) served as control.
# C4‐2 cell line was provided by Prof. Yonghong Li (Sun Yat‐sen University Cancer Center) and validated by short tandem repeat (STR). C4‐2 cells were grown in RPMI 1640 containing 10% FBS.
# [1] = Chidamide pharmacokinetics in patients (compartmental modeling, Phoenix Winnonlin 7.0); type: in vivo; conditions: male, human, plasma, mCRPC patients, after first administration; for AUC(0-t): read-out: AUC0–24 h, Mean; for clearance: read-out: CL, Mean (converted); for Vd: read-out: Vss, Mean; for half-life: read-out: t 1/2, Mean (converted)
# Description: From patients administered with different doses of chidamide, blood samples were collected in a sodium heparin tube at the time points of 2, 4, 8, 12, and 24 h after the completion of the first administration of chidamide (Day 1) in treatment cycle 1 and cycle 2. PK parameters were estimated from chidamide concentrations measured using […] samples taken at specified time points postdosing, and were analyzed by Phoenix Winnonlin 7.0.
# patients with mCRPC = type: in vivo
# Description: Chidamide was tested in three dose groups (20 mg, 25 mg, 30 mg). The starting dose was 20 mg per dose, administered twice a week, with a treatment cycle lasting 4 weeks. Dosing occurred on fixed days of each week, with two doses administered on the same day each week for the duration of the 4‐week cycle. Three participants are enrolled in each dosage group. If no DLT occurred during the first treatment cycle, the dose was escalated and three patients were enrolled at the next dose level. However, if one DLT was observed, three additional patients were added at the same dose level for further assessment. If no new DLTs occur, the study continues to the next dose level. If two or more of the six patients at a given dose level developed a DLT, further dose escalation was halted, and the prior dose level was determined to be the MTD. Abiraterone was combined with the second administration of chidamide on Day 4 of the first cycle. The observation for DLT was in the period of first cycle of treatment. […]
# [2] = system: AR downstream genes (PSA, TMPRSS2, SLC45A3) in C4-2 cells; assay: RT-PCR of AR downstream genes; type: cell-based; conditions: chidamide 0.5 µM
# Description: as §1
# Total cellular RNA was isolated using EZ‐press RNA Purification Kit (EZBioscience, USA) according to the manufacturer's protocol. For first‐strand cDNA synthesis, 5 µg of total RNA was reverse‐transcribed using the PrimeScript RT Master Mix (Perfect Real Time, TaKaRa Bio, Kusatsu, Japan) followed by quantitative PCR (qPCR) with 2 × Taq Master Mix (Vazyme Biotech Co., Ltd, China) according to the manufacturer's instructions. Real‐time PCR analyses were conducted using the Biorad CFX96 system and the appropriate primers to estimate the mRNA expression. The primer sequences were as follows: for PSA, forward 5′‐[…]‐3′ and reverse 5′‐[…]‐3′; for TMPRSS2, forward 5′‐[…]‐3′ and reverse 5′‐[…]‐3′; for SLC45A3, forward 5′‐[…]‐3′ and reverse 5′‐[…]‐3′; for GAPDH, forward 5′‐[…]‐3′ and reverse 5′‐[…]‐3′.
# [3] = system: chemotherapy-naïve mCRPC patients; parameters: method as in PMID 19608618; conditions: cited from earlier work
compound,measurement,setting,value
"Nc1cc(F)ccc1NC(=O)c1ccc(CNC(=O)/C=C/c2cccnc2)cc1 [chidamide, Chidamide]",Cell viability,C4-2 cells,effectively inhibits the cell viability
same,Cmax,[1]; 20 mg (N = 4),79.2 ng/mL
same,AUC(0-t),[1]; 20 mg (N = 4),1330 ng·h/mL
same,clearance,[1]; 20 mg (N = 4),170 mL/min
same,Vd,[1]; 20 mg (N = 4),207 L
same,half-life,[1]; 20 mg (N = 4),13.9 h
same,Cmax,[1]; 25 mg (N = 11),91.2 ng/mL
same,AUC(0-t),[1]; 25 mg (N = 11),1160 ng·h/mL
same,clearance,[1]; 25 mg (N = 11),260 mL/min
same,Vd,[1]; 25 mg (N = 11),326 L
same,half-life,[1]; 25 mg (N = 11),13.6 h
same,Cmax,[1]; 30 mg (N = 3),296 ng/mL
same,AUC(0-t),[1]; 30 mg (N = 3),2860 ng·h/mL
same,clearance,[1]; 30 mg (N = 3),188 mL/min
same,Vd,[1]; 30 mg (N = 3),132 L
same,half-life,[1]; 30 mg (N = 3),8.06 h
same,Chidamide-related SAEs,patients with mCRPC; all 18 patients,No chidamide‐related SAEs were observed
same,Dose-limited toxicity (DLT),"patients with mCRPC; dose escalation 20, 25, 30 mg chidamide, first cycle",none of the patients experienced a DLT
same,Relative mRNA expression of PSA,[2],significantly downregulated; also recorded: decreased
same,Relative mRNA expression of SLC45A3,[2],significantly downregulated; also recorded: decreased
same,Relative mRNA expression of TMPRSS2,[2],significantly downregulated; also recorded: decreased
C/C=C1\NC(=O)[C@H]2CSSCC/C=C/[C@H](CC(=O)N[C@H](C(C)C)C(=O)N2)OC(=O)[C@H](C(C)C)NC1=O [romidepsin],Time to progression (TTP),[3],1.8 months
